Measurements: ChEMBL document CHEMBL5335856, “Structurally Diverse Alkaloids with Anti-Renal-Fibrosis Activity from the Centipede Scolopendra subspinipes mutilans” (J Nat Prod, 2024)
Active and inactive are the calls of the source. No cut-off for these calls is given here.

Key:
[1] = biological target: Protein O-mannosyl-transferase TMTC3 (Homo sapiens) (UniProt Q6ZXV5); test: Binding affinity to Tmtc3 (unknown origin) assessed as fold change in protein upregulation at 200 uM preincubated for 2 hrs followed by pronase addition and measured after 30 mins by coomassie blue staining based SDS-PAGE gel analysis
[2] = biological target: Protein FAM91A1 (Homo sapiens) (UniProt Q658Y4); test: Binding affinity to Fam91a1 (unknown origin) assessed as fold change in protein upregulation at 200 uM preincubated for 2 hrs followed by pronase addition and measured after 30 mins by coomassie blue staining based SDS-PAGE gel analysis
[3] = biological target: Serine/threonine-protein kinase DCLK1 (Homo sapiens) (UniProt O15075); test: Binding affinity to Dclk1 (unknown origin) assessed as fold change in protein upregulation at 200 uM preincubated for 2 hrs followed by pronase addition and measured after 30 mins by coomassie blue staining based SDS-PAGE gel analysis
[4] = biological target: Lysosome-associated membrane glycoprotein 2 (Homo sapiens) (UniProt P13473); test: Binding affinity to Lamp2 (unknown origin) assessed as fold change in protein upregulation at 200 uM preincubated for 2 hrs followed by pronase addition and measured after 30 mins by coomassie blue staining based SDS-PAGE gel analysis
[5] = biological target: Collagen alpha-1(I) chain (Homo sapiens) (UniProt P02452); test: Binding affinity to Col1a1 (unknown origin) at 200 uM preincubated for 2 hrs followed by pronase addition and measured after 30 mins by coomassie blue staining based SDS-PAGE gel analysis
NRK-52E [6] = test: Anti-renal-fibrosis activity in TGF-beta1 induced rat NRK-52E cells assessed as downregulation of alpha-SMA protein level at 20 uM by Western blot analysis; format: functional, cell-based
[7] = biological target: FACT complex subunit SPT16 (Homo sapiens) (UniProt Q9Y5B9); test: Binding affinity to Supt16h (unknown origin) assessed as fold change in protein upregulation at 200 uM preincubated for 2 hrs followed by pronase addition and measured after 30 mins by coomassie blue staining based SDS-PAGE gel analysis
NRK-52E [8] = test: Anti-renal-fibrosis activity in TGF-beta1 induced Lamp2 knocked down rat NRK-52E cells assessed as downregulation of collagen I expression at 40 uM; format: functional, cell-based
NRK-52E [9] = test: Anti-renal-fibrosis activity in TGF-beta1 induced Lamp2 knocked down rat NRK-52E cells assessed as downregulation of alpha-SMA expression at 40 uM; format: functional, cell-based
[10] = biological target: Kinesin-like protein KIF21A (Homo sapiens) (UniProt Q7Z4S6); test: Binding affinity to Kif21a (unknown origin) at 200 uM preincubated for 2 hrs followed by pronase addition and measured after 30 mins by coomassie blue staining based SDS-PAGE gel analysis
Lamin-B2 (Homo sapiens) = Lamin-B2 (Homo sapiens) (UniProt Q03252); test: Binding affinity to Lmnb2 (unknown origin) assessed as fold change in protein upregulation at 200 uM preincubated for 2 hrs followed by pronase addition and measured after 30 mins by coomassie blue staining based SDS-PAGE gel analysis
[11] = biological target: Transcription initiation factor TFIID subunit 6 (Homo sapiens) (UniProt P49848); test: Binding affinity to Taf6 (unknown origin) at 200 uM preincubated for 2 hrs followed by pronase addition and measured after 30 mins by coomassie blue staining based SDS-PAGE gel analysis
[12] = biological target: Deoxycytidine kinase (Homo sapiens) (UniProt P27707); test: Binding affinity to Dck (unknown origin) at 200 uM preincubated for 2 hrs followed by pronase addition and measured after 30 mins by coomassie blue staining based SDS-PAGE gel analysis
[13] = biological target: Chromobox protein homolog 5 (Homo sapiens) (UniProt P45973); test: Binding affinity to Cbx5 (unknown origin) assessed as fold change in protein upregulation at 200 uM preincubated for 2 hrs followed by pronase addition and measured after 30 mins by coomassie blue staining based SDS-PAGE gel analysis
[14] = biological target: Tyrosine-protein phosphatase non-receptor type 2 (Homo sapiens) (UniProt P17706); test: Binding affinity to Ptpn2 (unknown origin) assessed as fold change in protein upregulation at 200 uM preincubated for 2 hrs followed by pronase addition and measured after 30 mins by coomassie blue staining based SDS-PAGE gel analysis
[15] = biological target: Na(+)/H(+) exchange regulatory cofactor NHE-RF1 (Homo sapiens) (UniProt O14745); test: Binding affinity to Slc9a3r1 (unknown origin) assessed as fold change in protein upregulation at 200 uM preincubated for 2 hrs followed by pronase addition and measured after 30 mins by coomassie blue staining based SDS-PAGE gel analysis
[16] = biological target: Tropomyosin alpha-3 chain (Homo sapiens) (UniProt P06753); test: Binding affinity to Tpm3 (unknown origin) at 200 uM preincubated for 2 hrs followed by pronase addition and measured after 30 mins by coomassie blue staining based SDS-PAGE gel analysis
[17] = biological target: Sorting nexin-3 (Homo sapiens) (UniProt O60493); test: Binding affinity to Snx3 (unknown origin) assessed as fold change in protein upregulation at 200 uM preincubated for 2 hrs followed by pronase addition and measured after 30 mins by coomassie blue staining based SDS-PAGE gel analysis
[18] = biological target: Cysteine and glycine-rich protein 2 (Homo sapiens) (UniProt Q16527); test: Binding affinity to Csrp2 (unknown origin) assessed as fold change in protein upregulation at 200 uM preincubated for 2 hrs followed by pronase addition and measured after 30 mins by coomassie blue staining based SDS-PAGE gel analysis
[19] = biological target: Poly(rC)-binding protein 3 (Homo sapiens) (UniProt P57721); test: Binding affinity to Pcbp3 (unknown origin) at 200 uM preincubated for 2 hrs followed by pronase addition and measured after 30 mins by coomassie blue staining based SDS-PAGE gel analysis
[20] = biological target: 2-oxoisovalerate dehydrogenase subunit beta, mitochondrial (Homo sapiens) (UniProt P21953); test: Binding affinity to BCKDHB (unknown origin) at 200 uM preincubated for 2 hrs followed by pronase addition and measured after 30 mins by coomassie blue staining based SDS-PAGE gel analysis
[21] = biological target: Protein YIF1B (Homo sapiens) (UniProt Q5BJH7); test: Binding affinity to Yif1b (unknown origin) assessed as fold change in protein upregulation at 200 uM preincubated for 2 hrs followed by pronase addition and measured after 30 mins by coomassie blue staining based SDS-PAGE gel analysis
[22] = biological target: Splicing factor 3A subunit 3 (Homo sapiens) (UniProt Q12874); test: Binding affinity to Sf3a3 (unknown origin) assessed as fold change in protein upregulation at 200 uM preincubated for 2 hrs followed by pronase addition and measured after 30 mins by coomassie blue staining based SDS-PAGE gel analysis
NRK-52E [23] = test: Anti-renal-fibrosis activity in TGF-beta1 induced rat NRK-52E cells assessed as downregulation of collagen I expression at 40 uM; format: functional, cell-based
NRK-52E [24] = test: Anti-renal-fibrosis activity in TGF-beta1 induced rat NRK-52E cells assessed as downregulation of collagen I protein level by Western blot analysis; format: functional, cell-based; conditions: dose 5-40 µM
Homo sapiens = species: Homo sapiens; test: Binding affinity to Wdr95 (unknown origin) at 200 uM preincubated for 2 hrs followed by pronase addition and measured after 30 mins by coomassie blue staining based SDS-PAGE gel analysis
RAW264.7 = test: Antiinflammatory activity against LPS-induced mouse RAW264.7 cells assessed as reduction in iNOS protein level at 20 uM; format: functional, cell-based

Chain of Serine/threonine-protein kinase DCLK1 (Homo sapiens) (O15075 whole entry): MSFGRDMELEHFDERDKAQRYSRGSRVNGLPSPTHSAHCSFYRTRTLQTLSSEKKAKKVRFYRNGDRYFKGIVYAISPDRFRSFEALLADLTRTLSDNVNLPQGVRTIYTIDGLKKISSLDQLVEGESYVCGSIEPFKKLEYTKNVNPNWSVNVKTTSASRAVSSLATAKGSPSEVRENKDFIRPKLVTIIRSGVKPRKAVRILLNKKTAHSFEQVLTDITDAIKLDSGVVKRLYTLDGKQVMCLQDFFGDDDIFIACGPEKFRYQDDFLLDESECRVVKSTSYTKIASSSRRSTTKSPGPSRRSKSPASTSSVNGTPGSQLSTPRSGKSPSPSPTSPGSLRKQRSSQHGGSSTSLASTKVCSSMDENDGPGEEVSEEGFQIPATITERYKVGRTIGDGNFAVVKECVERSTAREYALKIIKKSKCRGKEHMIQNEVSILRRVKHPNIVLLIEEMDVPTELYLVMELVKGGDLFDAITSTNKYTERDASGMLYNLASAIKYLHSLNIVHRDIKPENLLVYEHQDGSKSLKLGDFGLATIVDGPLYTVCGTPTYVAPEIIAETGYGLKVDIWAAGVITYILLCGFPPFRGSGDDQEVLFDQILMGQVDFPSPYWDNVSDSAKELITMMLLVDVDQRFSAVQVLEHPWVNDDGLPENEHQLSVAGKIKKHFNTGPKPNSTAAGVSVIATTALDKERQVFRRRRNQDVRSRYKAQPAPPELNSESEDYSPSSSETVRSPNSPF
Chain of Lysosome-associated membrane glycoprotein 2 (Homo sapiens) (P13473 whole entry): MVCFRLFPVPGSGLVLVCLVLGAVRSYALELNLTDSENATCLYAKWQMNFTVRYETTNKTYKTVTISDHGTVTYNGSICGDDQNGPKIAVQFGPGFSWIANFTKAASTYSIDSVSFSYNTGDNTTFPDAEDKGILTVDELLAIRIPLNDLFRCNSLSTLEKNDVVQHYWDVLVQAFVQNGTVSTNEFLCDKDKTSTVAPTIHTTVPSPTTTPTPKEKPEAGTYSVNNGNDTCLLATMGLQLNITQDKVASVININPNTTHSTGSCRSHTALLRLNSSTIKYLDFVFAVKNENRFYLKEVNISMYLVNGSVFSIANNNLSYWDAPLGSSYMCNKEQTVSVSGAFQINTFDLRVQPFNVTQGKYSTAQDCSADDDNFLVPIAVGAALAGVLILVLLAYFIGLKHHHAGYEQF
Chain of Tropomyosin alpha-3 chain (Homo sapiens) (P06753 whole entry): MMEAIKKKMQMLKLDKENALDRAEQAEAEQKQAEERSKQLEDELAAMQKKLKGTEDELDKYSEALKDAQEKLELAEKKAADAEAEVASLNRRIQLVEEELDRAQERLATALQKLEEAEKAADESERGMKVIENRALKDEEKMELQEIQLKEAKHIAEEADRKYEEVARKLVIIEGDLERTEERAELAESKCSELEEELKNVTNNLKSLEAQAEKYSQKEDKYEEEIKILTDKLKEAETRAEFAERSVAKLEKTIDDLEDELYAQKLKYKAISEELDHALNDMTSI
Chain of Splicing factor 3A subunit 3 (Homo sapiens) (Q12874 whole entry): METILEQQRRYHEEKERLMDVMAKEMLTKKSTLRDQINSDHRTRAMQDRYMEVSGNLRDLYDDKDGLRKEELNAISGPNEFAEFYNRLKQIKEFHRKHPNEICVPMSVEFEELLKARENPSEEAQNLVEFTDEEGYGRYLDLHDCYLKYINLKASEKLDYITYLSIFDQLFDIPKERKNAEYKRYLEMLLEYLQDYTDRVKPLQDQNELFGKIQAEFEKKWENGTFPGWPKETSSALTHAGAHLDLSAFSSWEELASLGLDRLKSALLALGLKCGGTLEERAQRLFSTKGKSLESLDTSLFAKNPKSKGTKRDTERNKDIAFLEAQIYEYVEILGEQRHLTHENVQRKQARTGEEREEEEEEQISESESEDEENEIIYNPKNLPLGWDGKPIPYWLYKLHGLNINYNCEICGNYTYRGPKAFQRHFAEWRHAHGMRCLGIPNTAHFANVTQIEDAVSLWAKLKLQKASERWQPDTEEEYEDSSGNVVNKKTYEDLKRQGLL
Chain of 2-oxoisovalerate dehydrogenase subunit beta, mitochondrial (Homo sapiens) (P21953 whole entry): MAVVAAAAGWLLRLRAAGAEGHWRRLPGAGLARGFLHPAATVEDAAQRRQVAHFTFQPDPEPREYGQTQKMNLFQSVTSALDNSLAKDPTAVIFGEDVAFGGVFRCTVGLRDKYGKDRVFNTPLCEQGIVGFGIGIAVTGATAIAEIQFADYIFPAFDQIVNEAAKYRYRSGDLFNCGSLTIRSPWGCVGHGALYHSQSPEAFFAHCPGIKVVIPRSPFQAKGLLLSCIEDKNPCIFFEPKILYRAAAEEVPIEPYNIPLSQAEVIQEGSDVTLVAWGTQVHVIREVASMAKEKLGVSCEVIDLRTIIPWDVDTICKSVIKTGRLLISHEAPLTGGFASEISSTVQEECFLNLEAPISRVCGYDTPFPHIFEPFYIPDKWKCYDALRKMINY
Chain of Sorting nexin-3 (Homo sapiens) (O60493 whole entry): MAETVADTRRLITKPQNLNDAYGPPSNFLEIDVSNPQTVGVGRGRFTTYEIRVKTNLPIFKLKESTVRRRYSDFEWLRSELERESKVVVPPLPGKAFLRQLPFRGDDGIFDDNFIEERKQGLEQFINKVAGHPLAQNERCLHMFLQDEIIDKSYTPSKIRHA
Chain of Protein YIF1B (Homo sapiens) (Q5BJH7 whole entry): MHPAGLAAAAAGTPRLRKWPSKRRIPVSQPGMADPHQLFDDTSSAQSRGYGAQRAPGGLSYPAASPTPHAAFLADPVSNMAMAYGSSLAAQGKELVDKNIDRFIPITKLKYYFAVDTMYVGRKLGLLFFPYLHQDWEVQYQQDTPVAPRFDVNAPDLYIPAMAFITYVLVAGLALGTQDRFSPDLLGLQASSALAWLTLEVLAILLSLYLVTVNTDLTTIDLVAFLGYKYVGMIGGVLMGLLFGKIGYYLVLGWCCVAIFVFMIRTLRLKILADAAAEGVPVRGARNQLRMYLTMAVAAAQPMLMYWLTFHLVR
Chain of FACT complex subunit SPT16 (Homo sapiens) (Q9Y5B9 whole entry, one chain of several): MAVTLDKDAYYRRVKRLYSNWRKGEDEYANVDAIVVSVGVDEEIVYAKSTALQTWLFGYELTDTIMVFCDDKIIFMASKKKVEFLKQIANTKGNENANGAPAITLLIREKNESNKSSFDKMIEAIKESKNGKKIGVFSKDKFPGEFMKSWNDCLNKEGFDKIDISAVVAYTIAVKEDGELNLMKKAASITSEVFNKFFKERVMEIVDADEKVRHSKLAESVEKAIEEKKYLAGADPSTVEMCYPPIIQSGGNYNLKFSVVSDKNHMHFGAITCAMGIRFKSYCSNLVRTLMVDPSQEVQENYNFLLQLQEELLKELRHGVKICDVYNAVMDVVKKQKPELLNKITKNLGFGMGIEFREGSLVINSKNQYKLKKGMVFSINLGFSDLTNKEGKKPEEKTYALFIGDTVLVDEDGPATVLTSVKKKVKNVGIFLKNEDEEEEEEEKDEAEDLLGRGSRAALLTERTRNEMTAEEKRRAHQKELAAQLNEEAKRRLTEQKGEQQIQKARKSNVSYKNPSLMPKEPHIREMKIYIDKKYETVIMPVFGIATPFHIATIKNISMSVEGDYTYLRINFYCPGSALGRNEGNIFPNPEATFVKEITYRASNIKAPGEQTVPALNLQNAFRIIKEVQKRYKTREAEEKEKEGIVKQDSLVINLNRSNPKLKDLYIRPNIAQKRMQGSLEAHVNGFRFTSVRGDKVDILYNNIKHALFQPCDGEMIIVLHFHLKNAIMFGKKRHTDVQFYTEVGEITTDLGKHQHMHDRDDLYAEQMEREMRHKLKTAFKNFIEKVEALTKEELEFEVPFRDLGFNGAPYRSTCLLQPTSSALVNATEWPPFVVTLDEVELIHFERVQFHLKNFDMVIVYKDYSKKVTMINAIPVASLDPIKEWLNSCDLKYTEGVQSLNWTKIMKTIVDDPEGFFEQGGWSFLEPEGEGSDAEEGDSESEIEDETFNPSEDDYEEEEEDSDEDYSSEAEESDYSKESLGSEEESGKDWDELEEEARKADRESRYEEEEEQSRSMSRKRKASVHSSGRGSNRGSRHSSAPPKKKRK
Chain of Cysteine and glycine-rich protein 2 (Homo sapiens) (Q16527 whole entry): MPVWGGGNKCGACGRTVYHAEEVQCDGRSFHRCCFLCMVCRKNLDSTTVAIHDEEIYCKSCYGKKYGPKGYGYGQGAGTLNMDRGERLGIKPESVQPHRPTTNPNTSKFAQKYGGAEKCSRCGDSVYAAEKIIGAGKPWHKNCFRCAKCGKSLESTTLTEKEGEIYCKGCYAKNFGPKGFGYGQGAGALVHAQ
Chain of Transcription initiation factor TFIID subunit 6 (Homo sapiens) (P49848 whole entry): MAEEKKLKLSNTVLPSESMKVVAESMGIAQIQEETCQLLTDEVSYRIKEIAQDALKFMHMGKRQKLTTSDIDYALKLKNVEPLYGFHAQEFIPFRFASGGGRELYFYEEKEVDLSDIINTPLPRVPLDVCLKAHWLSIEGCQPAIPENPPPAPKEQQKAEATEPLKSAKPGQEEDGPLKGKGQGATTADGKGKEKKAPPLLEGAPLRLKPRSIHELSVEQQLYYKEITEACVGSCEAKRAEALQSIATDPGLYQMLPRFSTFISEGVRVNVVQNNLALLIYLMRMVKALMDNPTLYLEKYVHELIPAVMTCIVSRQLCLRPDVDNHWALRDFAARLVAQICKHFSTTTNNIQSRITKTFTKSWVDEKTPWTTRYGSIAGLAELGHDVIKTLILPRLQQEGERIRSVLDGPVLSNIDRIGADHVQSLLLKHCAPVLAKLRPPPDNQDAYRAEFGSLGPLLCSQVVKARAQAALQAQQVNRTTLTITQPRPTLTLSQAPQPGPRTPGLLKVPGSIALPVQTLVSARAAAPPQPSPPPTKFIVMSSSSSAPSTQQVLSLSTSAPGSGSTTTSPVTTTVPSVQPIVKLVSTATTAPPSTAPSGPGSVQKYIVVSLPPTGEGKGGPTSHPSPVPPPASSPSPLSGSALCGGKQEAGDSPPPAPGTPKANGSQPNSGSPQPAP
Chain of Chromobox protein homolog 5 (Homo sapiens) (P45973 whole entry): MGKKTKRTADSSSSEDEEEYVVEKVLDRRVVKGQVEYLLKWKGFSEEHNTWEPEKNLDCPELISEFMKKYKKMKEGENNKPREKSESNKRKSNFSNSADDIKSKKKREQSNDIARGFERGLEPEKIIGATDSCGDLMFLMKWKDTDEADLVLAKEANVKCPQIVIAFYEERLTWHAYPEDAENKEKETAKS

COc1c(O)nc2c(O)cccc2c1OC
fold change (FC) [1]: 1.22
fold change (FC) [2]: 1.36
fold change (FC) [3]: 2.01
fold change (FC) [4]: 2.42
Activity [5]: Active
Activity (NRK-52E [6]): Active
fold change (FC) [7]: 1.23
Activity (NRK-52E [8]): inactive
Activity (NRK-52E [9]): inactive
Activity [10]: Active
fold change (FC) (Lamin-B2 (Homo sapiens)): 1.24
Activity [11]: Active
Activity [12]: Active
fold change (FC) [13]: 1.25
fold change (FC) [14]: 1.57
fold change (FC) [15]: 3.04
Activity [16]: Active
fold change (FC) [17]: 1.67
fold change (FC) [18]: 1.29
Activity [19]: Active
Activity [20]: Active
fold change (FC) [21]: 1.76
fold change (FC) [22]: 1.8
Activity (NRK-52E [23]): Active
Activity (NRK-52E [24]): Dose-Dependent Effect
Activity (Homo sapiens): Active
Activity (RAW264.7): Active
